# Target: Nociceptin receptor (Homo sapiens, UniProt P41146)
# Experiment: Cell-Based NOP Assay: Formula (I) compounds were tested for antagonism of the nociceptin receptor (NOP) in a cell-based cAMP assay, using the LANCE cAMP Detection Kit, Perkin Elmer (Waltham, Mass.). This assay (LANCE cAMP) is a homogeneous, time-resolved fluorescence resonance energy transfer (TR-FRET) immunoassay designed to measure cAMP produced upon modulation of adenylyl cyclase activity by G protein-coupled receptors (GPCRs).ProtocolCells expressing human opioid NOP (ValiScreen cell line, cat #ES-230-C Perkin Elmer (Waltham, Mass.) were dispensed in simulation buffer (5 mM Hepes, 0.1% BSA, 0.5 mM IBMX in Hanks Buffered Saline Solution) at 2.5 μL cells per well (400 cells/well) into a 1536 white TC-treated assay plate. Compound was then added and plates were incubated for 15 minutes at room temperature. To each well was added 2.5 μL of a solution containing forskolin (3 μM final) and nociceptin peptide (390 pM final) diluted in stimulation buffer, and the plates were incubated for 30 minutes at room temperature. To each well was dispensed 5 μL of LANCE Ultra detection (1:300 dilution of anti-cAMP ULight with a 1:100 dilution of Eu-cAMP tracer diluted in cAMP Detection Buffer) reagent, and the plates were incubated for 1 hr at room temperature. The plate was then read on the ViewLux microplate reader (Perkin Elmer, Waltham, Mass.) using the LANCE 1536 protocol with 60 second exposure times and 50 μs delay. This protocol has an excitation wavelength of 340 nm (DUG11 filter) and emission wavelengths of 615 nm (Eu-Donor) and 665 nm (Alexa 647 cAMP antibody acceptor).Data AnalysisData was analyzed, normalized, and visualized using ACAS (John McNeil & Co.). Efficacy was calculated using activity of the vehicle (DMSO) as 0% efficacy and the activity of the corresponding reference positive control (SCH 221510, Tocris Bioscience (Pittsburgh, Pa.), Catalog number 3240) as 100% efficacy. Activity was calculated as the ratio of donor and acceptor emissions. All curve fits and IC50 determinations were performed using a non-linear regression model. The IC50 value was measured as the concentration at which half-maximal response was calculated.
# Chain of Nociceptin receptor (P41146 whole entry): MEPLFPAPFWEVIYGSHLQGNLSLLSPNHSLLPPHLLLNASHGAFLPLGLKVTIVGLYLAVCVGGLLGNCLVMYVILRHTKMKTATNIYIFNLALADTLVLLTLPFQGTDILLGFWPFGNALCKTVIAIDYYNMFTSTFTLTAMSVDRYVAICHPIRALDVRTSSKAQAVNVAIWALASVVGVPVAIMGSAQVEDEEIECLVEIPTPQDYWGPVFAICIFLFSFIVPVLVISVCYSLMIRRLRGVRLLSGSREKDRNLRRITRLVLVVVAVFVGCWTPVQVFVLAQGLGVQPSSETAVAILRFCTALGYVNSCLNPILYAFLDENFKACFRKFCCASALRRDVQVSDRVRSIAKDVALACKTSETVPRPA
row,SMILES,IC50 [µM]
1,Fc1ccc([C@H]2CC[C@@H](CCNC3CCOCC3)CC2)c(F)c1,0.001 to 0.01
2,NC(=O)C1(NCC[C@H]2CC[C@H](c3cc(F)ccc3Cl)CC2)CCOCC1,0.01 to 0.1
3,Clc1cccnc1[C@H]1CC[C@@H](CCNC2CCOCC2)CC1,0.01 to 0.1
4,O=C1C[C@H](NCC[C@H]2CC[C@@H](c3ncc(F)cc3Cl)CC2)CCN1,0.001 to 0.01
5,Clc1ccccc1C1CCC(CCNC2CCOCC2)CC1 (stereo unspecified),0.001 to 0.01
6,OC1COCCC1NCC[C@H]1CC[C@@H](c2ccc(F)cc2Cl)CC1 (stereo partly specified),< 0.001
7,CNC(=O)C1(NCC[C@H]2CC[C@@H](c3c(F)cncc3Cl)CC2)CCOCC1,0.001 to 0.01
8,COCC1(NCC[C@H]2CC[C@@H](c3ncc(F)cc3Cl)CC2)CCOCC1,0.01 to 0.1
9,Fc1cnc([C@H]2CC[C@@H](CCNC3CCOCC3)CC2)c(Cl)c1,< 0.001
10,Fc1ccc(C2CCC(CCN[C@H]3CC[C@@H](F)C3)CC2)c(Cl)c1 (stereo partly specified),< 0.001
11,NC(=O)C1(NCC[C@H]2CC[C@H](c3ncc(F)cc3Cl)CC2)CCOCC1,0.01 to 0.1
12,CS(=O)(=O)N1CCC(NCC[C@H]2CC[C@@H](c3ccc(F)cc3Cl)CC2)CC1,0.01 to 0.1
13,CCNC(=O)C1(NCC[C@H]2CC[C@@H](c3ccc(F)cc3Cl)CC2)CCOCC1,0.001 to 0.01
14,NC(=O)C1(NCC[C@H]2CC[C@@H](c3cc(F)ccc3Cl)CC2)CCOCC1,0.01 to 0.1
15,NC(=O)C1(NCC[C@H]2CC[C@H](c3ncccc3Cl)CC2)CCOCC1,0.1 to 1
16,NC(=O)C1(NCC[C@H]2CC[C@H](c3c(F)cc(F)cc3F)CC2)CCOCC1,0.001 to 0.01
17,COCC1(NCCC2CCC(c3ccc(F)cc3F)CC2)CCOCC1 (stereo unspecified),0.01 to 0.1
18,Fc1ccc(C2CCC(CCNC3CCCCC3)CC2)c(F)c1 (stereo unspecified),0.01 to 0.1
19,NC(=O)C1(NCC[C@H]2CC[C@@H](c3ccc(F)cc3C(F)(F)F)CC2)CCOCC1,0.001 to 0.01
20,CN1CCC(NCC[C@H]2CC[C@@H](c3ccc(F)cc3Cl)CC2)CC1=O (stereo partly specified),0.01 to 0.1
21,Cc1cc(F)ccc1[C@H]1CC[C@@H](CCNC2(C(N)=O)CCOCC2)CC1,0.001 to 0.01
22,Fc1cccc(C2CCC(CCNC3CCCCC3)CC2)c1Cl (stereo unspecified),0.01 to 0.1
23,Fc1ccc([C@H]2CC[C@@H](CCNC3CCCC3(F)F)CC2)c(Cl)c1 (stereo partly specified),0.01 to 0.1
24,NC(=O)C1(NCC[C@H]2CC[C@@H](c3ncc(F)cc3Cl)CC2)CCOCC1,0.01 to 0.1
25,CNC(=O)C1(NCC[C@H]2CC[C@H](c3ccc(F)cc3C(F)(F)F)CC2)CCOCC1,0.001 to 0.01

row,SMILES,IC50 [µM]
1,Cc1cc(F)ccc1C1CCC(CCNC2CCOCC2)CC1 (stereo unspecified),0.001 to 0.01
2,NC(=O)C1(NCC[C@H]2CC[C@H](c3c(F)cc(F)cc3Cl)CC2)CCOCC1,0.001 to 0.01
3,CNC(=O)C1(NCC[C@H]2CC[C@@H](c3ccc(F)cc3C(F)(F)F)CC2)CCOCC1,0.001 to 0.01
4,O=C1NCCC1NCC[C@H]1CC[C@@H](c2ccc(F)cc2Cl)CC1 (stereo partly specified),0.001 to 0.01
5,CO[C@@H]1COCC[C@@H]1NCC[C@H]1CC[C@@H](c2ccc(F)cc2Cl)CC1,0.001 to 0.01
6,CNC(=O)C1(NCCC2CCC(c3ncc(F)cc3Cl)CC2)CCCC1 (stereo unspecified),0.01 to 0.1
7,Fc1cc(Cl)ccc1C1CCC(CCNC2CCCCC2)CC1 (stereo unspecified),0.001 to 0.01
8,Cc1cc(F)c(F)cc1[C@H]1CC[C@@H](CCN[C@@H]2CCNC(=O)C2)CC1,0.001 to 0.01
9,NC(=O)C1(NCC[C@H]2CC[C@@H](c3c(F)cc(F)cc3Cl)CC2)CCOCC1,0.001 to 0.01
10,CNC(=O)C1(NCC[C@H]2CC[C@@H](c3ccc(F)cc3Cl)CC2)CCOCC1,< 0.001
11,Fc1cccc(Cl)c1C1CCC(CCNC2CCCC2)CC1 (stereo unspecified),0.001 to 0.01
12,Fc1cnc([C@H]2CC[C@@H](CCNC3CCOCC3)CC2)nc1,0.1 to 1
13,COCC1(NCCC2CCC(c3cc(F)ccc3Cl)CC2)CCOCC1 (stereo unspecified),0.01 to 0.1
14,CNC(=O)C1(NCC[C@H]2CC[C@H](c3ccc(F)cc3F)CC2)CCOCC1,0.001 to 0.01
15,CC(=O)N1CCC(NCC[C@H]2CC[C@@H](c3ccc(F)cc3Cl)CC2)C1 (stereo partly specified),0.01 to 0.1
16,CNC(=O)C1(NCC[C@H]2CC[C@@H](c3ccc(F)cc3Cl)CC2)CCCC1,0.001 to 0.01
17,CC1(NCC[C@H]2CC[C@@H](c3ccc(F)cc3Cl)CC2)CCNC(=O)C1 (stereo partly specified),0.01 to 0.1
18,COCC1(NCCC2CCC(c3ccccc3Cl)CC2)CCOCC1 (stereo unspecified),0.01 to 0.1
19,Fc1ccc([C@H]2CC[C@@H](CCNC3CCOCC3)CC2)c(Cl)c1,< 0.001
20,CC(=O)N1CCC(NCC[C@H]2CC[C@@H](c3ccc(F)cc3Cl)CC2)CC1,0.01 to 0.1
21,Cc1cc(F)ccc1[C@H]1CC[C@H](CCNC2(C(N)=O)CCOCC2)CC1,0.01 to 0.1
22,Clc1cccnc1[C@H]1CC[C@H](CCNC2CCOCC2)CC1,0.01 to 0.1
23,CNC(=O)C1(NCC[C@H]2CC[C@H](c3c(F)cncc3Cl)CC2)CCOCC1,0.01 to 0.1
24,Fc1ccc([C@H]2CC[C@@H](CCNC3CCCC3)CC2)c(Cl)c1,< 0.001

# Second part, the molecule after the results:
row,IC50 [µM],SMILES
1,0.001 to 0.01,CNC(=O)C1(NCC[C@H]2CC[C@H](c3ncc(F)cc3Cl)CC2)CCOCC1
2,0.001 to 0.01,CCNC(=O)C1(NCC[C@H]2CC[C@@H](c3ncc(F)cc3Cl)CC2)CCOCC1
3,0.001 to 0.01,Fc1ccc([C@H]2CC[C@H](CCNC3CCOCC3)CC2)c(Cl)c1
4,0.01 to 0.1,NC(=O)C1(NCC[C@H]2CC[C@H](c3ccc(F)cc3C(F)(F)F)CC2)CCOCC1
5,0.001 to 0.01,Fc1ccc([C@H]2CC[C@H](CCNC3CCOCC3)CC2)c(F)c1
6,0.001 to 0.01,Fc1cnc([C@H]2CC[C@H](CCNC3CCOCC3)CC2)c(Cl)c1
7,0.001 to 0.01,Fc1cc(Cl)ccc1C1CCC(CCNC2CCOCC2)CC1 (stereo unspecified)
8,0.01 to 0.1,Fc1ccc(Cl)c(C2CCC(CCNC3CCCC3)CC2)c1 (stereo unspecified)
9,< 0.001,O=C1CC(NCC[C@H]2CC[C@@H](c3ccc(F)cc3Cl)CC2)CCN1 (stereo partly specified)
10,0.01 to 0.1,Cc1cc(F)ccc1C1CCC(CCNC2(C)CCCC2)CC1 (stereo unspecified)
11,< 0.001,OC1CCCC1NCC[C@H]1CC[C@@H](c2ccc(F)cc2Cl)CC1 (stereo partly specified)
12,0.001 to 0.01,O=C1C[C@@H](NCC[C@H]2CC[C@@H](c3ccc(F)cc3Cl)CC2)CCN1
13,< 0.001,N#C[C@H]1CC[C@@H](NCC[C@H]2CC[C@@H](c3ccc(F)cc3C(F)(F)F)CC2)CC1
14,0.001 to 0.01,Cc1cc(F)cc(F)c1[C@H]1CC[C@@H](CCNC2(C(N)=O)CCOCC2)CC1
15,0.001 to 0.01,O=C1C[C@H](NCC[C@H]2CC[C@H](c3ncc(F)cc3Cl)CC2)CCN1
16,0.01 to 0.1,Cc1cc(F)c(F)cc1[C@H]1CC[C@H](CCN[C@@H]2CCNC(=O)C2)CC1
17,0.001 to 0.01,Fc1cccc(Cl)c1C1CCC(CCNC2CCCCC2)CC1 (stereo unspecified)
18,0.01 to 0.1,COCC1(NCCC2CCC(c3c(F)cccc3Cl)CC2)CCOCC1 (stereo unspecified)
19,0.01 to 0.1,Cc1c(F)c(F)ccc1[C@H]1CC[C@@H](CCNC2(C(N)=O)CCOCC2)CC1
20,0.001 to 0.01,Fc1ccc(Cl)c(C2CCC(CCNC3CCOCC3)CC2)c1 (stereo unspecified)
21,0.01 to 0.1,NC(=O)C1(NCC[C@H]2CC[C@@H](c3ccc(F)cc3Cl)CC2)CCCC1
22,< 0.001,Fc1cccc(Cl)c1[C@H]1CC[C@@H](CCNC2CCOCC2)CC1
23,0.1 to 1,COCC1(NCC[C@H]2CC[C@H](c3ncc(F)cc3Cl)CC2)CCOCC1
24,0.01 to 0.1,Cc1cc(F)c(F)cc1[C@H]1CC[C@@H](CCNC2(C(N)=O)CCOCC2)CC1
25,0.001 to 0.01,OCC1(NCC[C@H]2CC[C@@H](c3ccc(F)cc3Cl)CC2)CCOCC1
26,0.01 to 0.1,NC(=O)C1(NCC[C@H]2CC[C@H](c3ccc(F)cc3Cl)CC2)CCOCC1

row,IC50 [µM],SMILES
1,0.01 to 0.1,CNC(=O)C1(NCC[C@H]2CC[C@@H](c3ccc(F)cc3F)CC2)CCOCC1
2,0.01 to 0.1,Cc1cccnc1[C@H]1CC[C@@H](CCNC2CCOCC2)CC1
3,0.001 to 0.01,Cc1cc(F)ccc1C1CCC(CCNC2CCCC2)CC1 (stereo unspecified)
4,< 0.001,O=C1C[C@H](NCC[C@H]2CC[C@@H](c3ccc(F)cc3Cl)CC2)CCN1
5,0.01 to 0.1,CC1(NCC[C@H]2CC[C@H](c3ncc(F)cc3Cl)CC2)CCNC(=O)C1 (stereo partly specified)
6,0.01 to 0.1,Cc1cccnc1C1CCC(CCNC2CCOCC2)CC1 (stereo unspecified)
7,0.001 to 0.01,Cc1cc(F)ccc1[C@H]1CC[C@H](CCNC2CCOCC2)CC1
8,0.01 to 0.1,CC1(NCCC2CCC(c3c(F)cccc3Cl)CC2)CCCC1 (stereo unspecified)
9,0.001 to 0.01,Fc1cnc(C2CCC(CCNC3CCCCC3)CC2)c(Cl)c1 (stereo unspecified)
10,0.001 to 0.01,CNC(=O)C1(NCC[C@H]2CC[C@@H](c3ncc(F)cc3Cl)CC2)CCOCC1
11,0.01 to 0.1,NC(=O)C1(NCC[C@H]2CC[C@@H](c3ccc(F)cc3F)CC2)CCOCC1
12,0.01 to 0.1,CCNC(=O)C1(NCC[C@H]2CC[C@H](c3ncc(F)cc3Cl)CC2)CCOCC1
13,0.01 to 0.1,COCC1(NCC[C@H]2CC[C@@H](c3ccc(F)cc3Cl)CC2)CCNC(=O)C1 (stereo partly specified)
14,0.001 to 0.01,Fc1cccc(Cl)c1[C@H]1CC[C@H](CCNC2CCOCC2)CC1
15,< 0.001,Fc1ccc([C@H]2CC[C@@H](CCNC3CCC(F)(F)C3)CC2)c(Cl)c1 (stereo partly specified)
16,0.001 to 0.01,CCNC(=O)C1(NCC[C@H]2CC[C@@H](c3ccc(F)cc3C(F)(F)F)CC2)CCOCC1
17,0.001 to 0.01,NC(=O)C1(NCC[C@H]2CC[C@@H](c3ccc(F)cc3Cl)CC2)CCOCC1
18,0.1 to 1,NC(=O)C1(NCC[C@H]2CC[C@@H](c3ncccc3Cl)CC2)CCOCC1
19,0.01 to 0.1,CC1(NCCC2CCC(c3ncc(F)cc3Cl)CC2)CCCC1 (stereo unspecified)
20,0.01 to 0.1,Fc1ccc(C2CCC(CCNC3CCCC3)CC2)c(F)c1 (stereo unspecified)
21,0.001 to 0.01,COCC1(NCC[C@H]2CC[C@@H](c3ccc(F)cc3Cl)CC2)CCOCC1
22,0.01 to 0.1,O=C1C[C@@H](NCC[C@H]2CC[C@@H](c3ncc(F)cc3Cl)CC2)CCN1
23,0.001 to 0.01,Cc1cc(F)cc(F)c1[C@H]1CC[C@H](CCNC2(C(N)=O)CCOCC2)CC1
24,0.01 to 0.1,Fc1cnc(C2CCC(CCNC3(C4CC4)CCOCC3)CC2)c(Cl)c1 (stereo unspecified)
25,0.01 to 0.1,Fc1cc(Cl)ccc1C1CCC(CCNC2CCCC2)CC1 (stereo unspecified)
26,< 0.001,Cc1cc(F)ccc1[C@H]1CC[C@@H](CCNC2CCOCC2)CC1

# From ChEMBL document CHEMBL5729163, “Substituted cyclohexyl compounds as NOP inhibiiors” (2022)
